From patent publication EP4596574A1, “GLP-1/GCG/GIP TRIPLE-RECEPTOR AGONIST AND USE THEREOF” (Sunshine Lake Pharma Co., Ltd., priority 2022, dated 2024)
Starred links: 1 amine or outer side, 2 acyl side, 3 side chain; linkers in the order of their positions; H or OH if unused. Non-standard residues stand in square brackets, D forms with d. Residues, ends and D or L forms follow the SMILES beside them. Groups on a side chain read outwards from the residue. *: point of attachment. C20 diacid = O=C(O)CCCCCCCCCCCCCCCCCCC(=O)*; αMePhe(2-F) = C[C@](N)(Cc1ccccc1F)C(=O)O; γGlu = O=C(O)[C@H](CCC(=O)[*:2])N[*:1]; AEEA = NCCOCCOCC(=O)O; Aib = CC(C)(N)C(=O)O

Key:
Format in all cases: cell-based
[1] = molecular target: T1, GLP-1R (Homo sapiens, UniProt P43220); assay: In vitro cell activity, cAMP production in HEK293 cells expressing GLP-1R; settings: HEK293-GLP-1R cells, cAMP; read-out: GLP-1R (EC50)
T1 construct: expressed in transfected cells; host or cells: HEK293 (HEK293-GLP-1R)
T1 sequence (P43220 24-463, species assumed): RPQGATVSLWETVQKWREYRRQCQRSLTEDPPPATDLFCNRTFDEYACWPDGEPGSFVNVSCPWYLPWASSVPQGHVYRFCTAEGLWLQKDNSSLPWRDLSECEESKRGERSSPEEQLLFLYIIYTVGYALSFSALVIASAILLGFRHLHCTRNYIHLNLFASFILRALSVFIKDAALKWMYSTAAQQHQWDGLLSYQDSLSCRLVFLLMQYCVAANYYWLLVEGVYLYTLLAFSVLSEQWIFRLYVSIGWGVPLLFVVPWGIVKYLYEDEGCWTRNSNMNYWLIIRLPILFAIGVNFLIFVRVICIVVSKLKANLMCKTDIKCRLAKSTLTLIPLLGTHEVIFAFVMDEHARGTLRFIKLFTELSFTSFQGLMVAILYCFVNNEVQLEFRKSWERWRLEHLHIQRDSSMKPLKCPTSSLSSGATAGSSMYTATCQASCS
Experimental: (§1) After they were completely thawed within 1.5 minutes, the cells were added dropwise into a 15 mL centrifuge tube containing 8 mL of warm culture medium in a clean bench. The tubes were centrifuged at 900 rpm for 5 minutes, the supernatant was discarded, and the cells were resuspended in 1 mL of complete culture medium (by pipetting 15 times). 20 µL of the suspension was immediately taken and mixed with an equal volume of trypan blue. 20 µL was taken to count the number of live cells, and the cells were diluted to 4×10^5 cells/mL with complete culture medium. • 4) The 384-well plate was divided into GLP-1R cell, GCGR cell and GIPR cell areas. The cell suspension was added to the wells of the corresponding area at 5 µL per well using a 12-channel variable-channel adjustable dispenser. […] Then, the diluted cAMP-d2 working solution and anti-cAMP-crytate working solution were mixed evenly in a ratio of 1:1, and 10 µL was added to each well of the sample group. The wells were covered with white lids and placed at room temperature in the dark for 1 hour or at 4 °C overnight. • 6) The fluorescence values at 665 nm and 620 nm were detected in a multifunctional microplate reader. In GraphPad Prism 6, the signal ratio and sample concentration were nonlinearly fitted using a four-parameter equation to obtain the EC50 value.

[2] = molecular target: T2, GCGR (Homo sapiens, UniProt P47871); assay: In vitro cell activity, cAMP production in HEK293 cells expressing GCGR; settings: HEK293-GCGR cells, cAMP; read-out: GCGR (EC50)
T2 construct: expressed in transfected cells; host or cells: HEK293 (HEK293-GCGR)
T2 sequence (P47871 26-477, species assumed): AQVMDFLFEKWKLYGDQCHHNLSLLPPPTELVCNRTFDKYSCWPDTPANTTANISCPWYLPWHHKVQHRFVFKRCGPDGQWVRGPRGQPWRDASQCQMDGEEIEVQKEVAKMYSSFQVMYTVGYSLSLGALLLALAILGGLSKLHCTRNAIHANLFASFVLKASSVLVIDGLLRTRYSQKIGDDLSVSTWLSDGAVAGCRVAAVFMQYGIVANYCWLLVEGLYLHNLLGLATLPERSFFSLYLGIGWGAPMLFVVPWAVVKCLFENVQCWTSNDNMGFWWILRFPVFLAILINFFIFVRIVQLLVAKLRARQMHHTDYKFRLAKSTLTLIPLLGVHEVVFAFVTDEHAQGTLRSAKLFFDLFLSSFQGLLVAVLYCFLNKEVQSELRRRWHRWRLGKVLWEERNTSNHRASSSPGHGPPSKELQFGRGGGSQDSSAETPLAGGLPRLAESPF
Experimental: as §1

[3] = molecular target: T3, GIPR (Homo sapiens, UniProt P48546); assay: In vitro cell activity, cAMP production in HEK293 cells expressing GIPR; settings: HEK293-GIPR cells, cAMP; read-out: GIPR (EC50)
T3 construct: expressed in transfected cells; host or cells: HEK293 (HEK293-GIPR)
T3 sequence (P48546 22-466): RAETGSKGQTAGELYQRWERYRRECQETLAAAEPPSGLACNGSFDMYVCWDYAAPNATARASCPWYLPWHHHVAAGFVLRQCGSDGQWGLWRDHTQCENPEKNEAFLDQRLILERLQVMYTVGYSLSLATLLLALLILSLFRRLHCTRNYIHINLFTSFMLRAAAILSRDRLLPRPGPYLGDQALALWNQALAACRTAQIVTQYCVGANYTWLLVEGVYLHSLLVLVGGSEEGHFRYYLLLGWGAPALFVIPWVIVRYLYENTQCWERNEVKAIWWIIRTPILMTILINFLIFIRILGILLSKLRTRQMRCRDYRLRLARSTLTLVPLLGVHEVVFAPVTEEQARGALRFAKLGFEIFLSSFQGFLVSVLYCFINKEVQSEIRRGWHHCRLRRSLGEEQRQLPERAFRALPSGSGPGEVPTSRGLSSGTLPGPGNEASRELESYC
Experimental: as §1, with “The wells were covered with white lids and placed at room temperature in the dark for 1 hour or at 4 °C overnight. • 6) The fluorescence values at 665 nm and 620 nm were detected in a multifunctional microplate reader.” left out

Row | SMILES | EC50 [1] [nM] | EC50 [2] [nM] | EC50 [3] [nM]
1 | CC[C@H](C)[C@H](NC(=O)[C@H](CCC(=O)O)NC(=O)[C@H](CC(=O)O)NC(=O)[C@H](CC(C)C)NC(=O)[C@H](CC(C)C)NC(=O)[C@@H](NC(=O)[C@H](CO)NC(=O)[C@H](Cc1ccc(O)cc1)NC(=O)[C@H](CC(=O)O)NC(=O)[C@H](CO)NC(=O)[C@@H](NC(=O)[C@](C)(Cc1ccccc1F)NC(=O)[C@@H](NC(=O)CNC(=O)[C@H](CCC(N)=O)NC(=O)C(C)(C)NC(=O)[C@@H](N)Cc1c[nH]cn1)[C@@H](C)O)[C@@H](C)O)[C@@H](C)CC)C(=O)N[C@@H](C)C(=O)N[C@@H](CCC(N)=O)C(=O)N[C@@H](CCCCNC(=O)COCCOCCNC(=O)COCCOCCNC(=O)CC[C@H](NC(=O)CCCCCCCCCCCCCCCCCCC(=O)O)C(=O)O)C(=O)N[C@@H](CC(=O)O)C(=O)N[C@@H](Cc1ccccc1)C(=O)N[C@H](C(=O)N[C@@H](CCC(=O)O)C(=O)N[C@@H](Cc1c[nH]c2ccccc12)C(=O)N[C@@H](CC(C)C)C(=O)N[C@@H](CC(C)C)C(=O)N[C@@H](CCC(=O)O)C(=O)NCC(=O)NCC(=O)N1CCC[C@H]1C(=O)N[C@@H](CO)C(=O)N[C@@H](CO)C(=O)NCC(=O)N[C@@H](C)C(=O)N1CCC[C@H]1C(=O)N1CCC[C@H]1C(=O)N1CCC[C@H]1C(=O)N[C@@H](CO)C(=O)O)[C@@H](C)CC [HEC-PT67] (H-H[Aib]QGT[αMePhe(2-F)]TSDYSILLDEIAQK([AEEA-AEEA-γGlu-C20 diacid])DFIEWLLEGGPSSGAPPPS-OH) | 0.679 | 57 | 0.402
2 | CC[C@H](C)[C@H](NC(=O)[C@H](Cc1ccccc1)NC(=O)[C@H](C)NC(=O)[C@H](CCC(N)=O)NC(=O)[C@H](CCC(N)=O)NC(=O)[C@H](C)NC(=O)[C@H](CCCCNC(=O)COCCOCCNC(=O)CC[C@H](NC(=O)CCCCCCCCCCCCCCCCCCC(=O)O)C(=O)O)NC(=O)[C@H](CCC(=O)O)NC(=O)[C@H](CC(=O)O)NC(=O)[C@H](CC(C)C)NC(=O)[C@H](CC(C)C)NC(=O)[C@@H](NC(=O)[C@H](CO)NC(=O)[C@H](Cc1ccc(O)cc1)NC(=O)[C@H](CC(=O)O)NC(=O)[C@H](CO)NC(=O)[C@@H](NC(=O)[C@](C)(Cc1ccccc1F)NC(=O)[C@@H](NC(=O)CNC(=O)[C@H](CCC(N)=O)NC(=O)C(C)(C)NC(=O)[C@@H](N)Cc1ccc(O)cc1)[C@@H](C)O)[C@@H](C)O)[C@@H](C)CC)C(=O)N[C@@H](CCC(=O)O)C(=O)N[C@@H](Cc1ccc(O)cc1)C(=O)N[C@@H](CC(C)C)C(=O)N[C@@H](CC(C)C)C(=O)N[C@@H](CCC(=O)O)C(=O)NCC(=O)NCC(=O)N1CCC[C@H]1C(=O)N[C@@H](CO)C(=O)N[C@@H](CO)C(=O)NCC(=O)N[C@@H](C)C(=O)N1CCC[C@H]1C(=O)N1CCC[C@H]1C(=O)N1CCC[C@H]1C(=O)N[C@@H](CO)C(=O)O [HEC-PT68] | 0.415 | 0.748 | 0.199
3 | CC[C@H](C)[C@H](NC(=O)[C@H](CC(C)C)NC(=O)[C@H](Cc1c[nH]c2ccccc12)NC(=O)[C@H](CCC(=O)O)NC(=O)[C@@H](NC(=O)[C@H](Cc1ccccc1)NC(=O)[C@H](CC(=O)O)NC(=O)[C@H](CCC(N)=O)NC(=O)[C@H](CCC(N)=O)NC(=O)[C@H](C)NC(=O)[C@H](CCCCNC(=O)COCCOCCNC(=O)CC[C@H](NC(=O)CCCCCCCCCCCCCCCCCCC(=O)O)C(=O)O)NC(=O)[C@H](CCC(=O)O)NC(=O)[C@H](CC(=O)O)NC(=O)[C@H](CC(C)C)NC(=O)[C@H](CC(C)C)NC(=O)[C@@H](NC(=O)[C@H](CO)NC(=O)[C@H](Cc1ccc(O)cc1)NC(=O)[C@H](CC(=O)O)NC(=O)[C@H](CO)NC(=O)[C@@H](NC(=O)[C@](C)(Cc1ccccc1F)NC(=O)[C@@H](NC(=O)CNC(=O)[C@H](CCC(N)=O)NC(=O)C(C)(C)NC(=O)[C@@H](N)Cc1ccc(O)cc1)[C@@H](C)O)[C@@H](C)O)[C@@H](C)CC)[C@@H](C)CC)C(=O)N[C@@H](C)C(=O)NCC(=O)NCC(=O)N1CCC[C@H]1C(=O)N[C@@H](CO)C(=O)N[C@@H](CO)C(=O)NCC(=O)N[C@@H](C)C(=O)N1CCC[C@H]1C(=O)N1CCC[C@H]1C(=O)N1CCC[C@H]1C(=O)N[C@@H](CO)C(=O)O [HEC-PT69] | 2.18 | 30.8 | 0.419
4 | CC[C@H](C)[C@H](NC(=O)[C@H](CC(C)C)NC(=O)[C@H](Cc1c[nH]c2ccccc12)NC(=O)[C@H](CCC(=O)O)NC(=O)[C@@H](NC(=O)[C@H](Cc1ccccc1)NC(=O)[C@H](CCC(=O)O)NC(=O)[C@H](CCCCNC(=O)COCCOCCNC(=O)COCCOCCNC(=O)CC[C@H](NC(=O)CCCCCCCCCCCCCCCCCCC(=O)O)C(=O)O)NC(=O)[C@H](C)NC(=O)[C@H](C)NC(=O)[C@H](CCCNC(=N)N)NC(=O)[C@H](CCC(=O)O)NC(=O)[C@H](CC(=O)O)NC(=O)[C@H](CC(C)C)NC(=O)[C@H](CC(C)C)NC(=O)[C@@H](NC(=O)[C@H](CO)NC(=O)[C@H](Cc1ccc(O)cc1)NC(=O)[C@H](CC(=O)O)NC(=O)[C@H](CO)NC(=O)[C@@H](NC(=O)[C@](C)(Cc1ccccc1F)NC(=O)[C@@H](NC(=O)CNC(=O)[C@H](CCC(N)=O)NC(=O)C(C)(C)NC(=O)[C@@H](N)Cc1ccc(O)cc1)[C@@H](C)O)[C@@H](C)O)[C@@H](C)CC)[C@@H](C)CC)C(=O)N[C@@H](C)C(=O)NCC(=O)NCC(=O)N1CCC[C@H]1C(=O)N[C@@H](CO)C(=O)N[C@@H](CO)C(=O)NCC(=O)N[C@@H](C)C(=O)N1CCC[C@H]1C(=O)N1CCC[C@H]1C(=O)N1CCC[C@H]1C(=O)N[C@@H](CO)C(=O)O [HEC-PT71] (H-Y[Aib]QGT[αMePhe(2-F)]TSDYSILLDERAAK([AEEA-AEEA-γGlu-C20 diacid])EFIEWLIAGGPSSGAPPPS-OH) | 0.336 | 5.39 | 0.464
5 | CC[C@H](C)[C@H](NC(=O)[C@H](Cc1ccccc1)NC(=O)[C@H](C)NC(=O)[C@H](CCC(N)=O)NC(=O)[C@H](CCC(N)=O)NC(=O)[C@H](C)NC(=O)[C@H](CCCCNC(=O)COCCOCCNC(=O)CC[C@H](NC(=O)CCCCCCCCCCCCCCCCCCC(=O)O)C(=O)O)NC(=O)[C@H](CCC(=O)O)NC(=O)[C@H](CC(=O)O)NC(=O)[C@H](CC(C)C)NC(=O)[C@H](CC(C)C)NC(=O)[C@@H](NC(=O)[C@H](CO)NC(=O)[C@H](Cc1ccc(O)cc1)NC(=O)[C@H](CC(=O)O)NC(=O)[C@H](CO)NC(=O)[C@@H](NC(=O)[C@](C)(Cc1ccccc1F)NC(=O)[C@@H](NC(=O)CNC(=O)[C@H](Cc1c[nH]cn1)NC(=O)C(C)(C)NC(=O)[C@@H](N)Cc1ccc(O)cc1)[C@@H](C)O)[C@@H](C)O)[C@@H](C)CC)C(=O)N[C@@H](CCC(=O)O)C(=O)N[C@@H](Cc1ccc(O)cc1)C(=O)N[C@@H](CC(C)C)C(=O)N[C@@H](CC(C)C)C(=O)N[C@@H](C)C(=O)NCC(=O)NCC(=O)N1CCC[C@H]1C(=O)N[C@@H](CO)C(=O)N[C@@H](CO)C(=O)NCC(=O)N[C@@H](C)C(=O)N1CCC[C@H]1C(=O)N1CCC[C@H]1C(=O)N1CCC[C@H]1C(=O)N[C@@H](CO)C(=O)O [HEC-PT81] | 0.409 | 0.382 | 0.132
